Assay results: the NIST ThermoML archive (doi:10.1016/j.fluid.2007.10.013)

Test: xn = mol fraction of the nth substance listed
Conditions: 101 kPa, Liquid, Taylor dispersion method, x1 = 0

Row | Compound | binary diffusion coefficient (293.2 K) | binary diffusion coefficient (298.2 K) | binary diffusion coefficient (303.2 K) | binary diffusion coefficient (313.2 K) | binary diffusion coefficient (323.2 K) | binary diffusion coefficient (333.2 K)
1 | NC(CO)C(=O)O (centres undefined) [(.+-.)-serine] + O | 7.72e-10 m2/s | 8.8e-10 m2/s | 9.91e-10 m2/s | 1.26e-09 m2/s | 1.55e-09 m2/s | 1.88e-09 m2/s
2 | C[C@@H](O)[C@H](N)C(=O)O [DL-threonine] + O | 6.91e-09 m2/s | 7.99e-09 m2/s | 9.04e-09 m2/s | 1.14e-08 m2/s | 1.43e-08 m2/s | 1.72e-08 m2/s
3 | C[C@H](O)[C@H](N)C(=O)O [DL-allothreonine] + O | 6.97e-10 m2/s | 7.96e-10 m2/s | 9.06e-10 m2/s | 1.14e-09 m2/s | 1.42e-09 m2/s | 1.72e-09 m2/s
4 | NC(CCO)C(=O)O (stereo not drawn) [DL-2-amino-4-hydroxybutanoic acid] + O | 7.26e-10 m2/s | 8.39e-10 m2/s | 9.39e-10 m2/s | 1.19e-09 m2/s | 1.47e-09 m2/s | 1.78e-09 m2/s
